Earlier results as cited in paper PMC2895553 (Journal of the American Chemical Society, 2010).

Test system: αvβ3 integrin

Q: With “cyclo(-Arg-Gly-Asp-DPhe-(Me)Val-] [Cilengitide]” as the substance, how does the “activity as inhibitor for the αvβ3 integrin” value read?
A: The value was 0.5 nM.
